From US6420412B2, “Eprosartan dihydate and a process for its production and formulation” (SmithKline Beecham Corporation, priority 1996, dated 2002)

Assays:
Assay type in all cases: physicochemical
[1] = Storage stability of the drug substance
Protocol: (§1) Eprosartan is anhydrous, and, by itself, is stable at ambient temperature and humidity, as well as at accelerated conditions (30° C./79% RH or 40° C./75% RH for up to 6 months). […] In the former case where the hydrate is obtained by moistening the drug substance, the hydrated form is not stable, and is generally converted back into the anhydrous form during drying.

[2] = Moisture uptake and hydrate conversion on storage at high humidity
Protocol: as §1

[3] = Compactibility in the solid dosage form; settings: compared to the corresponding anhydrous form

| SMILES | stability at accelerated conditions ([1]; 30° C./79% RH or 40° C./75% RH for up to 6 months) | stability ([1]; drug substance by itself, ambient temperature and humidity) | conversion of solid form on storage ([2]; moistened then stored in closed container, or dry powder at relative humidity of 98% or higher, ambient or higher temperatures, 8 days or longer) | moisture pick-up at higher humidities ([2]; typically up to 95% RH) | compactibility in the solid dosage form [3] | stability of hydrate obtained by moistening the drug substance ([1]; no excipient, during drying generally converted back into the anhydrous form) |
| --- | --- | --- | --- | --- | --- | --- |
| CCCCc1ncc(/C=C(\Cc2cccs2)C(=O)O)n1Cc1ccc(C(=O)O)cc1 [Eprosartan, (E)-α-[2-n-butyl-1-[(4-carboxyphenyl)methyl]-1H-imidazol-5-yl]methylene-2-thiophenepropionic acid monomethanesulfonate] | stable | stable | converts to the hydrated form | does not pick up moisture | – | – |
| CCCCc1ncc(/C=C(\Cc2cccs2)C(=O)O)n1Cc1ccc(C(=O)O)cc1.CS(=O)(=O)O.O.O [dihydrate, (E)-α-[2-n-butyl-1-[(4-carboxyphenyl)methyl]-1H-imidazol-5-yl]methylene-2-thiophenepropionic acid monomethanesulfonate dihydrate] | – | – | – | – | more compactible | not stable |
